Measured values from patent US12357598B2, “Treatment of neurodevelopmental disorders” (THE REGENTS OF THE UNIVERSITY OF CALIFORNIA, priority 2018, dated 2025).

Test system: ddY mice
Experiment: Oxylipin analysis of plasma and brain regions of juvenile offspring after maternal glyphosate exposure
Type: in vivo, mouse
Settings: juvenile offspring (P28), maternal 0.095% glyphosate
From the text: Collection of blood and brain samples and oxylipin analysis. Water or 0.095% glyphosate was given to pregnant mice from E5 to P21, as described above. The male offspring were separated from their mothers at weaning (P21). At juvenile (P28) stage, mice were deeply anesthetized with isoflurane and plasma was collected. Subsequently, brains were removed from the skulls. For Western blot analysis, brain regions such as prefrontal cortex (PFC), hippocampus, and striatum, were dissected from brain on ice. The samples were stored at −80° C. before assay. For oxylipin analysis, plasma was collected after isoflurane anesthesia at juvenile (P28) stage. Subsequently, PFC, hippocampus, and striatum were dissected from brain on ice, and the samples were stored at −80° C. before assay. Measurement of eicosanoids in the plasma and brain regions was performed at UC Davis using the previous method (4).

With `O=C(O)CNCP(=O)(O)O` [glyphosate] the “4,5-DiHDPE level” value (PFC) was 1.083 ± 0.242 pmol/g, the “5(6)-EpETrE level” value (PFC) was 3862.881 ± 1353.639 pmol/g and the “5,6-DiHETrE level” value (PFC) was 0.699 ± 0.113 pmol/g. It also gave a 5-HEPE level (PFC) of 1.760 ± 0.234 pmol/g, a 5-HETE level (PFC) of 18.560 ± 1.797 pmol/g and a 5-oxo-ETE level (PFC) of 142.497 ± 16.459 pmol/g. The 6-keto-PGF1a level (PFC) was 88.691 ± 7.208 pmol/g, the “7(8)-EpDPE level” value (PFC) was 3640.707 ± 1175.101 pmol/g and the “8(9)-EpETE level” value (PFC) was 1.992 ± 0.638 pmol/g. For the same compound, the “8(9)-EpETrE alt level” value (PFC) was 447.323 ± 148.765 pmol/g, the “8(9)-EpETrE level” value (PFC) was 12713.4 ± 6124.0 pmol/g and the 8-HEPE level (PFC) was 0.959 ± 0.080 pmol/g. The 8-HETE level (PFC) was 7.904 ± 0.840 pmol/g, the “9(10)-EpOME level” value (PFC) was 57.775 ± 18.915 pmol/g and the “9,10,13-TriHOME level” value (PFC) was 31.772 ± 4.440 pmol/g. The “9,12,13-TriHOME level” value (PFC) was 52.749 ± 6.979 pmol/g, the 9-HETE level (PFC) was 1.826 ± 0.587 pmol/g and the 9-HODE level (PFC) was 32.184 ± 2.752 pmol/g. For the same compound, the “10(11)-EpDPE level” value (PFC) was 270.138 ± 86.641 pmol/g, the “11(12)-EpETE level” value (PFC) was 2.775 ± 0.733 pmol/g and the “11(12)-EpETrE level” value (PFC) was 1128.684 ± 354.042 pmol/g. For the same compound, the “11,12-,15-TriHETrE level” value (PFC) was 27.925 ± 2.262 pmol/g, the “11,12-DiHETrE level” value (PFC) was 1.383 ± 0.124 pmol/g and the 11-HETE level (PFC) was 275.604 ± 19.707 pmol/g. The “12(13)-EpOME level” value (PFC) was 67.240 ± 21.629 pmol/g, the 12-HEPE level (PFC) was 6.850 ± 1.105 pmol/g and the 12-HETE level (PFC) was 448.365 ± 69.003 pmol/g. For the same compound, the 12-oxo-ETE level (PFC) was 2140.116 ± 142.081 pmol/g, the “13(14)-EpDPE level” value (PFC) was 190.175 ± 59.161 pmol/g and the “13,14-DiHDPE level” value (PFC) was 0.851 ± 0.076 pmol/g. For the same compound, the 13-HODE level (PFC) was 45.239 ± 3.261 pmol/g, the “14(15)-EpETE level” value (PFC) was 1.633 ± 0.487 pmol/g and the “14(15)-EpETrE level” value (PFC) was 1037.632 ± 291.994 pmol/g. The “14,15-DiHETrE level” value (PFC) was 2.498 ± 0.243 pmol/g, the “15(16)-EpODE level” value (PFC) was 0.500 ± 0.121 pmol/g and the “15(S)-HETrE level” value (PFC) was 11.900 ± 1.029 pmol/g. For the same compound, the 15-HETE level (PFC) was 313.016 ± 24.240 pmol/g, the 15-oxo-ETE level (PFC) was 10.104 ± 1.289 pmol/g and the “16(17)-EpDPE level” value (PFC) was 195.454 ± 58.684 pmol/g. The “16,17-DiHDPE level” value (PFC) was 1.154 ± 0.110 pmol/g, the “17(18)-EpETE level” value (PFC) was 3.729 ± 1.017 pmol/g and the 17-HDoHE level (PFC) was 6200.527 ± 739.211 pmol/g. The “19(20)-EpDPE level” value (PFC) was 353.450 ± 99.156 pmol/g, the “19,20-DiHDPE level” value (PFC) was 7.491 ± 0.703 pmol/g and the EKODE level (PFC) was 12.663 ± 1.143 pmol/g. For the same compound, the LTB3 level (PFC) was 53.423 ± 26.072 pmol/g, the PGD2 level (PFC) was 439.532 ± 37.011 pmol/g and the PGE2 level (PFC) was 137.389 ± 14.051 pmol/g. For the same compound, the PGF2a level (PFC) was 431.431 ± 34.510 pmol/g, the TXB2 level (PFC) was 246.160 ± 16.777 pmol/g and the “4,5-DiHDPE level” value (hippocampus) was 1.572 ± 0.704 pmol/mL. The “5(6)-EpETrE level” value (hippocampus) was 917.184 ± 134.826 pmol/mL, the “5,6-DiHETrE level” value (hippocampus) was 0.470 ± 0.051 pmol/mL and the 5-HEPE level (hippocampus) was 2.917 ± 0.708 pmol/mL. The 5-HETE level (hippocampus) was 16.705 ± 0.992 pmol/mL, the 5-oxo-ETE level (hippocampus) was 94.461 ± 9.488 pmol/mL and the 6-keto-PGF1a level (hippocampus) was 113.103 ± 15.509 pmol/mL. The “7(8)-EpDPE level” value (hippocampus) was 460.824 ± 81.977 pmol/mL, the “8(9)-EpETE level” value (hippocampus) was 3.435 ± 0.784 pmol/mL and the “8(9)-EpETrE alt level” value (hippocampus) was 89.694 ± 12.609 pmol/mL. For the same compound, the “8(9)-EpETrE level” value (hippocampus) was 971.2 ± 484.7 pmol/mL, the 8-HEPE level (hippocampus) was 1.415 ± 0.182 pmol/mL and the 8-HETE level (hippocampus) was 5.383 ± 0.796 pmol/mL. For the same compound, the “9(10)-EpOME level” value (hippocampus) was 9.131 ± 1.032 pmol/mL, the “9,10,13-TriHOME level” value (hippocampus) was 29.123 ± 5.450 pmol/mL and the “9,12,13-TriHOME level” value (hippocampus) was 51.599 ± 10.194 pmol/mL. The 9-HETE level (hippocampus) was 2.073 ± 0.532 pmol/mL, the 9-HODE level (hippocampus) was 31.282 ± 6.681 pmol/mL and the “10(11)-EpDPE level” value (hippocampus) was 40.179 ± 5.185 pmol/mL. The “11(12)-EpETE level” value (hippocampus) was 1.254 ± 0.537 pmol/mL, the “11(12)-EpETrE level” value (hippocampus) was 254.371 ± 33.701 pmol/mL and the “11,12-,15-TriHETrE level” value (hippocampus) was 20.278 ± 1.789 pmol/mL. The “11,12-DiHETrE level” value (hippocampus) was 0.914 ± 0.053 pmol/mL, the 11-HETE level (hippocampus) was 261.315 ± 27.149 pmol/mL and the “12(13)-EpOME level” value (hippocampus) was 11.355 ± 1.474 pmol/mL. For the same compound, the 12-HEPE level (hippocampus) was 9.094 ± 3.984 pmol/mL, the 12-HETE level (hippocampus) was 131.250 ± 40.185 pmol/mL and the 12-oxo-ETE level (hippocampus) was 1245.436 ± 206.406 pmol/mL. For the same compound, the “13(14)-EpDPE level” value (hippocampus) was 27.748 ± 3.955 pmol/mL, the “13,14-DiHDPE level” value (hippocampus) was 0.516 ± 0.089 pmol/mL and the 13-HODE level (hippocampus) was 54.648 ± 8.929 pmol/mL. The “14(15)-EpETE level” value (hippocampus) was 0.712 ± 0.184 pmol/mL, the “14(15)-EpETrE level” value (hippocampus) was 241.703 ± 26.592 pmol/mL and the “14,15-DiHETrE level” value (hippocampus) was 1.183 ± 0.095 pmol/mL. The “15(16)-EpODE level” value (hippocampus) was 2.750 ± 0.907 pmol/mL, the “15(S)-HETrE level” value (hippocampus) was 7.994 ± 1.430 pmol/mL and the 15-HETE level (hippocampus) was 263.402 ± 29.963 pmol/mL. The 15-oxo-ETE level (hippocampus) was 8.232 ± 0.652 pmol/mL, the “16(17)-EpDPE level” value (hippocampus) was 29.112 ± 4.286 pmol/mL and the “16,17-DiHDPE level” value (hippocampus) was 0.675 ± 0.093 pmol/mL. For the same compound, the “17(18)-EpETE level” value (hippocampus) was 1.592 ± 0.499 pmol/mL, the 17-HDoHE level (hippocampus) was 5997.276 ± 762.508 pmol/mL and the “19(20)-EpDPE level” value (hippocampus) was 55.856 ± 8.656 pmol/mL. For the same compound, the “19,20-DiHDPE level” value (hippocampus) was 5.359 ± 0.322 pmol/mL, the EKODE level (hippocampus) was 11.362 ± 1.014 pmol/mL and the LTB3 level (hippocampus) was 13.669 pmol/mL. It also gave a PGD2 level (hippocampus) of 349.020 ± 34.288 pmol/mL, a PGE2 level (hippocampus) of 68.947 ± 7.203 pmol/mL and a PGF2a level (hippocampus) of 314.752 ± 30.178 pmol/mL. For the same compound, the TXB2 level (hippocampus) was 198.203 ± 24.835 pmol/mL.
